Data from patent publication US12691111B2, “SETD2 inhibitors and related methods and uses, including combination therapies” (EPIZYME, INC., priority 2020, dated 2026).

Assays:
GRANTA519 = assay: 7-day co-treatment combination study, CellTiter-Glo, Loewe Volume; type: cell-based; settings: GRANTA519 mantle cell lymphoma cells, 7-day co-treatment with Cpd. No. 15
Experimental: (§1) Multiple myeloma (MM) and mantle cell lymphoma (MCL) Cell line cultures in log-linear growth rate were treated with combinations of Cpd. No. 15 and combination partners according to a co-treatment model. […] No. 15 and the combination partner. […] Each combination was tested in quadruplicate wells. The final concentration of DMSO (vehicle) in the assay was 0.1% v/v. Fifty microliters of cell line suspension were directly dispensed to the assay-ready plates with an automated multichannel dispenser on to 384-well assay-ready plates. Assay plates were incubated for seven days in a humidified atmosphere of 5% CO2 at 37° C. Quantification of the effect of single agents or combinations on cell viability was performed through measurement of cellular adenosine triphosphate (ATP) using a CellTiter-Glo® (Promega, MadisonWIs.) Luminescent Cell Viability Assay. Luminescence was detected using a SpectraMax M5 microplate reader (Molecular Devices, Sunnyvale, CA). Concentration response plots were generated in GraphPad Prism version 7.0 for Windows, GraphPad Software, (La Jolla, CA) and curves fitted to a four-parameter logistic model with variable slope. Percent of inhibition was calculated at each treatment concentration.
(§2) The results of these combinations are summarized in Tables A and B (multiple myeloma cell lines), and Tables C and D (mantle cell lymphoma cell lines).

JEKO1 = assay: as above; type: cell-based; settings: JEKO1 mantle cell lymphoma cells, 7-day co-treatment with Cpd. No. 15
Experimental: as §1, §2

JVM2 = assay: as above; type: cell-based; settings: JVM2 mantle cell lymphoma cells, 7-day co-treatment with Cpd. No. 15
Experimental: as §1, §2

KMS34 = assay: as above; type: cell-based; settings: KMS34 multiple myeloma cells, 7-day co-treatment with Cpd. No. 15
Experimental: as §1, §2

L363 = assay: as above; type: cell-based; settings: L363 multiple myeloma cells, 7-day co-treatment with Cpd. No. 15
Experimental: as §1, §2

MAVER1 = assay: as above; type: cell-based; settings: MAVER1 mantle cell lymphoma cells, 7-day co-treatment with Cpd. No. 15
Experimental: as §1, §2

MINO = assay: as above; type: cell-based; settings: MINO mantle cell lymphoma cells, 7-day co-treatment with Cpd. No. 15
Experimental: as §1, §2

MM1.S = assay: as above; type: cell-based; settings: MM1.S multiple myeloma cells, 7-day co-treatment with Cpd. No. 15
Experimental: as §1, §2

REC1 = assay: as above; type: cell-based; settings: REC1 mantle cell lymphoma cells, 7-day co-treatment with Cpd. No. 15
Experimental: as §1, §2

RPMI-8226 = assay: as above; type: cell-based; settings: RPMI-8226 multiple myeloma cells, 7-day co-treatment with Cpd. No. 15
Experimental: as §1, §2

Z138 = assay: as above; type: cell-based; settings: Z138 mantle cell lymphoma cells, 7-day co-treatment with Cpd. No. 15
Experimental: as §1, §2

KARPAS422 = assay: Pre-treatment model combination study (4 days pre-treatment, 3 days co-treatment), CellTiter-Glo, Loewe Volume; type: cell-based; settings: KARPAS422 diffuse large B-cell lymphoma cells, 4 days Cpd. No. 15 pre-treatment then 3 days co-treatment
Experimental: (§3) Diffuse large B-cell lymphoma cells were seeded into flasks and pre-treated with several concentrations of Cpd. No. 15 or DMSO. Cells were then split adjusted to initial density, replated and co-treated Cpd. No. 15 and a second agent of interest using the HP D300 digital dispenser (Tecan Group, Mannedorf, Switzerland) in tissue culture treated solid white 384-well plates for additional 3 days. […] After 3 days cotreatment, cell viability was measured via ATP content using CellTiter-Glo® (Promega, Madison, WI) and luminescence was detected using a SpectraMax M5 microplate reader (Molecular Devices, Sunnyvale, CA).
(§4) Diffuse large B-cell lymphoma (DLBCL) cell line cultures in log-linear growth rate were treated with combinations of Cpd. No. 15 and combination partners according to a pre-treatment model. Cells were seeded first into 8 flasks and pre-treated with 7 different concentrations of Cpd. […] Cells were harvested from each flask and re-seeded onto the corresponding 384-well plate with the same concentration of Cpd. No. 15. and 9 concentrations of its combination partner in triplicate wells. The final concentration of DMSO (vehicle) in the assay was 0.1% v/v. Fifty microliters of cell line(s) suspension were directly dispensed to the assay-ready plates with an automated multichannel dispenser on to 384-well assay-ready plates. Assay plates were incubated for three days in a humidified atmosphere of 5% CO2 at 37° C. Quantification of the effect of single agents or combinations on cell viability was performed through measurement of cellular adenosine triphosphate (ATP) using CellTiter-Glo® (Promega, Madison, WI). Luminescence was detected using a SpectraMax M5 microplate reader (Molecular Devices, Sunnyvale, CA). Concentration response plots were generated in GraphPad Prism version 8.0 for Windows, GraphPad Software, (La Jolla, CA) and curves fitted to a four-parameter logistic model with variable slope. Percent of inhibition was calculated at each treatment concentration.

SUDHL-2 = assay: as above; type: cell-based; settings: SUDHL-2 diffuse large B-cell lymphoma cells, 4 days Cpd. No. 15 pre-treatment then 3 days co-treatment
Experimental: as §3, §4

SUDHL-6 = assay: as above; type: cell-based; settings: SUDHL-6 diffuse large B-cell lymphoma cells, 4 days Cpd. No. 15 pre-treatment then 3 days co-treatment
Experimental: as §3, §4

WSUDLCL2 = assay: as above; type: cell-based; settings: WSUDLCL2 diffuse large B-cell lymphoma cells, 4 days Cpd. No. 15 pre-treatment then 3 days co-treatment
Experimental: as §3, §4

KMS-28-BM = assay: 7-day co-treatment combination study, CellTiter-Glo, Loewe Volume; type: cell-based; settings: KMS-28-BM multiple myeloma cells, 7-day co-treatment with Cpd. No. 15
Experimental: as §1, §2

KMS-11 = assay: as above; settings: KMS-11 multiple myeloma cells, 7-day co-treatment with Cpd. No. 15
NCI-H929 = assay: as above; type: cell-based; settings: NCI-H929 multiple myeloma cells, 7-day co-treatment with Cpd. No. 15
Experimental: as §1, §2

CCN(c1cc(-c2ccc(CN3CCOCC3)cc2)cc(C(=O)NCc2c(C)cc(C)[nH]c2=O)c1C)C1CCOCC1 [Tazemetostat, tazemetostat]
Combination effect (Loewe Volume class) of Cpd. No. 15 with combination partner (GRANTA519): No Effect
Combination effect (Loewe Volume class) of Cpd. No. 15 with combination partner (JEKO1): No Effect
Combination effect (Loewe Volume class) of Cpd. No. 15 with combination partner (JVM2): Additivity (between 1 and −1: additivity)
Combination effect (Loewe Volume class) of Cpd. No. 15 with combination partner (KMS34): Synergy (VLoewe>1: synergy)
Combination effect (Loewe Volume class) of Cpd. No. 15 with combination partner (L363): Synergy (VLoewe>1: synergy)
Combination effect (Loewe Volume class) of Cpd. No. 15 with combination partner (MAVER1): Additivity (between 1 and −1: additivity)
Combination effect (Loewe Volume class) of Cpd. No. 15 with combination partner (MINO): No Effect
Combination effect (Loewe Volume class) of Cpd. No. 15 with combination partner (MM1.S): Synergy (VLoewe>1: synergy)
Combination effect (Loewe Volume class) of Cpd. No. 15 with combination partner (REC1): Additivity (between 1 and −1: additivity)
Combination effect (Loewe Volume class) of Cpd. No. 15 with combination partner (RPMI-8226): Additivity (between 1 and −1: additivity)
Combination effect (Loewe Volume class) of Cpd. No. 15 with combination partner (Z138): No Effect
Combination effect (Loewe Volume class) of Cpd. No. 15 with combination partner (KARPAS422): No effect
Combination effect (Loewe Volume class) of Cpd. No. 15 with combination partner (SUDHL-2): Additivity (between 1 and −1: additivity)
Combination effect (Loewe Volume class) of Cpd. No. 15 with combination partner (SUDHL-6): No effect
Combination effect (Loewe Volume class) of Cpd. No. 15 with combination partner (WSUDLCL2): Additivity (between 1 and −1: additivity)

Nc1cccc2c1CN(C1CCC(=O)NC1=O)C2=O (centres unmarked) [Lenalidomide, lenalidomide]
Combination effect (Loewe Volume class) of Cpd. No. 15 with combination partner (GRANTA519): Additivity (between 1 and −1: additivity)
Combination effect (Loewe Volume class) of Cpd. No. 15 with combination partner (JEKO1): Synergy (VLoewe>1: synergy)
Combination effect (Loewe Volume class) of Cpd. No. 15 with combination partner (JVM2): Additivity (between 1 and −1: additivity)
Combination effect (Loewe Volume class) of Cpd. No. 15 with combination partner (KMS-28-BM): No Effect
Combination effect (Loewe Volume class) of Cpd. No. 15 with combination partner (KMS34): Synergy (VLoewe>1: synergy)
Combination effect (Loewe Volume class) of Cpd. No. 15 with combination partner (L363): Additivity (between 1 and −1: additivity)
Combination effect (Loewe Volume class) of Cpd. No. 15 with combination partner (MAVER1): Synergy (VLoewe>1: synergy)
Combination effect (Loewe Volume class) of Cpd. No. 15 with combination partner (MINO): Additivity (between 1 and −1: additivity)
Combination effect (Loewe Volume class) of Cpd. No. 15 with combination partner (MM1.S): Additivity (between 1 and −1: additivity)
Combination effect (Loewe Volume class) of Cpd. No. 15 with combination partner (REC1): Additivity (between 1 and −1: additivity)
Combination effect (Loewe Volume class) of Cpd. No. 15 with combination partner (RPMI-8226): Synergy (VLoewe>1: synergy)
Combination effect (Loewe Volume class) of Cpd. No. 15 with combination partner (Z138): Synergy (VLoewe>1: synergy)
Combination effect (Loewe Volume class) of Cpd. No. 15 with combination partner (KARPAS422): No effect
Combination effect (Loewe Volume class) of Cpd. No. 15 with combination partner (SUDHL-2): Additivity (between 1 and −1: additivity)
Combination effect (Loewe Volume class) of Cpd. No. 15 with combination partner (SUDHL-6): No effect
Combination effect (Loewe Volume class) of Cpd. No. 15 with combination partner (WSUDLCL2): Additivity (between 1 and −1: additivity)
Combination effect (Loewe Volume class) of Cpd. No. 15 with combination partner (KMS-11): Synergy (VLoewe>1: synergy)

CC1(C)CCC(CN2CCN(c3ccc(C(=O)NS(=O)(=O)c4ccc(NCC5CCOCC5)c([N+](=O)[O-])c4)c(Oc4cnc5[nH]ccc5c4)c3)CC2)=C(c2ccc(Cl)cc2)C1 [Venetoclax, venetoclax]
Combination effect (Loewe Volume class) of Cpd. No. 15 with combination partner (GRANTA519): Synergy (VLoewe>1: synergy)
Combination effect (Loewe Volume class) of Cpd. No. 15 with combination partner (JEKO1): Additivity (between 1 and −1: additivity)
Combination effect (Loewe Volume class) of Cpd. No. 15 with combination partner (JVM2): Synergy (VLoewe>1: synergy)
Combination effect (Loewe Volume class) of Cpd. No. 15 with combination partner (KMS-28-BM): Additivity (between 1 and −1: additivity)
Combination effect (Loewe Volume class) of Cpd. No. 15 with combination partner (KMS34): Additivity (between 1 and −1: additivity)
Combination effect (Loewe Volume class) of Cpd. No. 15 with combination partner (L363): Additivity (between 1 and −1: additivity)
Combination effect (Loewe Volume class) of Cpd. No. 15 with combination partner (MAVER1): Synergy (VLoewe>1: synergy)
Combination effect (Loewe Volume class) of Cpd. No. 15 with combination partner (MINO): Additivity (between 1 and −1: additivity)
Combination effect (Loewe Volume class) of Cpd. No. 15 with combination partner (MM1.S): Additivity (between 1 and −1: additivity)
Combination effect (Loewe Volume class) of Cpd. No. 15 with combination partner (NCI-H929): Synergy (VLoewe>1: synergy)
Combination effect (Loewe Volume class) of Cpd. No. 15 with combination partner (REC1): Additivity (between 1 and −1: additivity)
Combination effect (Loewe Volume class) of Cpd. No. 15 with combination partner (RPMI-8226): Additivity (between 1 and −1: additivity)
Combination effect (Loewe Volume class) of Cpd. No. 15 with combination partner (Z138): Synergy (VLoewe>1: synergy)
Combination effect (Loewe Volume class) of Cpd. No. 15 with combination partner (KARPAS422): No effect
Combination effect (Loewe Volume class) of Cpd. No. 15 with combination partner (SUDHL-2): Synergy (VLoewe>1: synergy)
Combination effect (Loewe Volume class) of Cpd. No. 15 with combination partner (SUDHL-6): Synergy (VLoewe>1: synergy)
Combination effect (Loewe Volume class) of Cpd. No. 15 with combination partner (WSUDLCL2): Synergy (VLoewe>1: synergy)
Combination effect (Loewe Volume class) of Cpd. No. 15 with combination partner (KMS-11): Synergy (VLoewe>1: synergy)
